Measured values published in ChEMBL document CHEMBL4152250, “Antibacterial and anti-TB tat-peptidomimetics with improved efficacy and half-life” (Eur J Med Chem, 2018).
Converted amounts (≈) assume the structure as drawn. The source made the active and inactive calls. The rule behind the calls is not given here. Numbered stars: 1 amine (or outer) side, 2 acyl side, 3 side chain; on linkers, the order of the positions; unused ones are H or OH. Square brackets hold non-standard residues; d marks the D form. Peptide text beside a SMILES is read from it. Pro(N-(CH2)3Gua,cis-4-NH-) = N=C(N)NCCCN1C[C@@H](N[*:1])C[C@H]1C(=O)[*:2]; Pro(cis-4-guanidino) = NC(N)=N[C@@H]1CN[C@H](C(=O)O)C1; βAla = NCCC(=O)O

How the values were obtained:
[1] = tested on: Escherichia coli; assay: Antibacterial activity against Escherichia coli NCIM 2688 after 8 hrs by serial dilution method; type: functional, organism-based; conditions: NCIM 2688, 8 h
[2] = tested on: Pseudomonas aeruginosa; assay: Antibacterial activity against Pseudomonas aeruginosa NCIM 2036 after 8 hrs by serial dilution method; type: functional, organism-based; conditions: NCIM 2036, 8 h
[3] = tested on: Enterobacter sp.; assay: Antibacterial activity against Enterobacter sp. NCIM 5392 after 8 hrs by serial dilution method; type: functional, organism-based; conditions: NCIM 5392, 8 h
[4] = tested on: Bacillus subtilis; assay: Antibacterial activity against Bacillus subtilis NCIM 2079 after 12 hrs by serial dilution method; type: functional, organism-based; conditions: NCIM 2079, 12 h
[5] = tested on: Staphylococcus aureus; assay: Antibacterial activity against Staphylococcus aureus NCIM 2010 after 12 hrs by serial dilution method; type: functional, organism-based; conditions: NCIM 2010, 12 h
[6] = tested on: Staphylococcus epidermidis; assay: Antibacterial activity against Staphylococcus epidermidis NCIM 5270 after 12 hrs by serial dilution method; type: functional, organism-based; conditions: NCIM 5270, 12 h
[7] = tested on: Mycobacterium tuberculosis; assay: Antitubercular activity against dormant stage of Mycobacterium tuberculosis H37Ra ATCC 25177 after 12 days by XRMA; type: functional, organism-based; conditions: H37Ra ATCC 25177, 288 h
[8] = tested on: Mycobacterium tuberculosis; assay: Antitubercular activity against active stage of Mycobacterium tuberculosis H37Ra ATCC 25177 after 8 days by XRMA; type: functional, organism-based; conditions: H37Ra ATCC 25177, 192 h
[9] = tested on: Staphylococcus aureus; assay: Disruption of cell wall in Staphylococcus aureus NCIM 2010 at MIC after 60 mins by transmission electron microscopic method; type: functional, organism-based
[10] = tested on: Escherichia coli; assay: Disruption of cell wall in Escherichia coli NCIM 2688 at MIC after 60 mins by transmission electron microscopic method; type: functional, organism-based
[11] = Cytotoxicity against human HeLa cells assessed as cell viability at 1 to 10 uM after 24 hrs by MTT assay relative to control; type: cell-based; conditions: read-out: Activity

SMILES | IC50 [1] [nM] | MIC [1] [µM] | IC50 [2] [nM] | MIC [2] [µM] | IC50 [3] [nM] | MIC [3] [µM] | IC50 [4] [nM] | MIC [4] [µM] | IC50 [5] [nM] | MIC [5] [µM] | IC50 [6] [nM] | MIC [6] [µM] | IC50 [7] [nM] | MIC [7] [µM] | IC50 [8] [nM] | MIC [8] [µM] | Activity [9] | Activity [10] | viability at 24 h, up to 10 µM [11] [%]
CC(=O)N[C@@H](Cc1ccccc1)C(=O)NCC(=O)N[C@@H](CCCNC(=N)N)C(=O)N[C@@H](CCCCN)C(=O)N[C@@H](CCCCN)C(=O)N[C@@H](CCCNC(=N)N)C(=O)N[C@@H](CCCNC(=N)N)C(=O)N[C@@H](CCC(N)=O)C(=O)N[C@@H](CCCNC(=N)N)C(=O)N[C@@H](CCCNC(=N)N)C(=O)N[C@H]1C[C@@H](C(=O)NCCC(N)=O)N(CCCNC(=N)N)C1 (Ac-FGRKKRRQRR[Pro(N-(CH2)3Gua,cis-4-NH-)][βAla]-NH2) | 8 | 5.71 (≈ 9.77 µg/mL) | 9.3 | 3.35 (≈ 5.73 µg/mL) | 13 | 18.9 (≈ 32.3 µg/mL) | 9.3 | 3.56 (≈ 6.09 µg/mL) | 7 | 8.47 (≈ 14.5 µg/mL) | 10 | 4.92 (≈ 8.42 µg/mL) | 1970 | 18.4 (≈ 31.5 µg/mL) | 2420 | 27.6 (≈ 47.2 µg/mL) | Active | Active | ≥ 80
CC(=O)N[C@@H](Cc1ccccc1)C(=O)NCC(=O)N[C@@H](CCCNC(=N)N)C(=O)N[C@@H](CCCCN)C(=O)N[C@@H](CCCCN)C(=O)N[C@@H](CCCNC(=N)N)C(=O)N[C@@H](CCCNC(=N)N)C(=O)N[C@@H](CCC(N)=O)C(=O)N[C@@H](CCCNC(=N)N)C(=O)N[C@@H](CCCNC(=N)N)C(=O)N1C[C@@H](NC(=N)N)C[C@H]1C(=O)NCCC(N)=O (Ac-FGRKKRRQRR[Pro(cis-4-guanidino)][βAla]-NH2) | 92 | 6.73 (≈ 11.1 µg/mL) | 70 | 10.3 (≈ 17 µg/mL) | – | – | 149 | 7.96 (≈ 13.2 µg/mL) | 86 | 10.9 (≈ 18.1 µg/mL) | – | – | 910 | 23.9 (≈ 39.5 µg/mL) | 9700 | 32.1 (≈ 53.1 µg/mL) | – | – | ≥ 80
CC(=O)N[C@@H](Cc1ccccc1)C(=O)NCC(=O)N[C@@H](CCCNC(=N)N)C(=O)N[C@@H](CCCCN)C(=O)N[C@@H](CCCCN)C(=O)N[C@H]1C[C@@H](C(=O)N[C@@H](CCCNC(=N)N)C(=O)N[C@@H](CCC(N)=O)C(=O)N[C@@H](CCCNC(=N)N)C(=O)N[C@@H](CCCNC(=N)N)C(=O)N[C@@H](CCCNC(=N)N)C(=O)NCCC(N)=O)N(CCCNC(=N)N)C1 (Ac-FGRKK[Pro(N-(CH2)3Gua,cis-4-NH-)]RQRRR[βAla]-NH2) | 18 | 7.25 (≈ 12.4 µg/mL) | 5 | 2.67 (≈ 4.57 µg/mL) | 14 | 4.7 (≈ 8.04 µg/mL) | 45 | 14.1 (≈ 24.1 µg/mL) | 23 | 5.25 (≈ 8.98 µg/mL) | 14 | 8.95 (≈ 15.3 µg/mL) | 1280 | 13.8 (≈ 23.6 µg/mL) | 3000 | 20.1 (≈ 34.4 µg/mL) | – | – | ≥ 80
CC(=O)N[C@@H](Cc1ccccc1)C(=O)NCC(=O)N[C@@H](CCCNC(=N)N)C(=O)N[C@@H](CCCCN)C(=O)N[C@@H](CCCCN)C(=O)N1C[C@@H](NC(=N)N)C[C@H]1C(=O)N[C@@H](CCCNC(=N)N)C(=O)N[C@@H](CCC(N)=O)C(=O)N[C@@H](CCCNC(=N)N)C(=O)N[C@@H](CCCNC(=N)N)C(=O)N[C@@H](CCCNC(=N)N)C(=O)NCCC(N)=O (Ac-FGRKK[Pro(cis-4-guanidino)]RQRRR[βAla]-NH2) | 92 | 13.5 (≈ 22.3 µg/mL) | 47 | 6.53 (≈ 10.8 µg/mL) | – | – | 344 | 29.9 (≈ 49.4 µg/mL) | 104 | 8.65 (≈ 14.3 µg/mL) | – | – | 2510 | 33.9 (≈ 56.1 µg/mL) | 4450 | 28.6 (≈ 47.3 µg/mL) | – | – | ≥ 80
CC(=O)N[C@@H](Cc1ccccc1)C(=O)NCC(=O)N[C@H]1C[C@@H](C(=O)N[C@@H](CCCCN)C(=O)N[C@@H](CCCCN)C(=O)N[C@@H](CCCNC(=N)N)C(=O)N[C@H]2C[C@@H](C(=O)N[C@@H](CCC(N)=O)C(=O)N[C@@H](CCCNC(=N)N)C(=O)N[C@@H](CCCNC(=N)N)C(=O)N[C@H]3C[C@@H](C(=O)NCCC(N)=O)N(CCCNC(=N)N)C3)N(CCCNC(=N)N)C2)N(CCCNC(=N)N)C1 (Ac-FG[Pro(N-(CH2)3Gua,cis-4-NH-)]KKR[Pro(N-(CH2)3Gua,cis-4-NH-)]QRR[Pro(N-(CH2)3Gua,cis-4-NH-)][βAla]-NH2) | 18 | 7.58 (≈ 13.8 µg/mL) | 9.8 | 1.82 (≈ 3.31 µg/mL) | 24 | 8.01 (≈ 14.6 µg/mL) | 10.4 | 2.81 (≈ 5.12 µg/mL) | 10.4 | 9.05 (≈ 16.5 µg/mL) | 6.5 | 9.44 (≈ 17.2 µg/mL) | 2200 | 22.8 (≈ 41.5 µg/mL) | 8400 | 26.1 (≈ 47.5 µg/mL) | – | – | ≥ 80
CC(=O)N[C@@H](Cc1ccccc1)C(=O)NCC(=O)N1C[C@@H](NC(=N)N)C[C@H]1C(=O)N[C@@H](CCCCN)C(=O)N[C@@H](CCCCN)C(=O)N[C@@H](CCCNC(=N)N)C(=O)N1C[C@@H](NC(=N)N)C[C@H]1C(=O)N[C@@H](CCC(N)=O)C(=O)N[C@@H](CCCNC(=N)N)C(=O)N[C@@H](CCCNC(=N)N)C(=O)N1C[C@@H](NC(=N)N)C[C@H]1C(=O)NCCC(N)=O (Ac-FG[Pro(cis-4-guanidino)]KKR[Pro(cis-4-guanidino)]QRR[Pro(cis-4-guanidino)][βAla]-NH2) | 105 | 11.8 (≈ 19.5 µg/mL) | 92 | 12.6 (≈ 20.8 µg/mL) | – | – | 135 | 13.2 (≈ 21.8 µg/mL) | 227 | 20.5 (≈ 33.9 µg/mL) | – | – | 500 | 21.1 (≈ 34.8 µg/mL) | 10600 | 36.3 (≈ 59.9 µg/mL) | – | – | ≥ 80
